Measurements reported in patent EP3818828A1 (priority 2019, dated 2021).
Read-outs that look alike come from different tables or passages of the source.

Legend:
Pyricularia grisea = experiment: microbe, parasite or virus in culture; assay type: cell-based; settings: for Average Diameter of the Colony: 1 mg/mL; for inhibition at 1000 µg/mL: read-out: Inhibition Rate
Phytophthora infestans [1] = assay type: cell-based; settings: Phytophthora infestas; 1 mg/mL
Phytophthora infestans [2] = experiment: microbe, parasite or virus in culture; assay type: cell-based; settings: 1 mg/mL
E. cichoracearum = experiment: Field efficiency test, cucumber powdery mildew; assay type: in vivo; settings: 0.50 mg/mL (active ingredients)
Protocol: (§1) The formulation of emulsifiable concentrate is the same as that in Embodiment 3.
10% of 3-(3',4'-methylenedioxy phenyl)-N-n-propyl acrylamide EC and 14% of 3-(3',4'-methylenedioxy phenyl)-piperidine acrylate EC were diluted at a concentration of 0.50 mg/mL (2000 fold liquid of active ingredients); the control agent, 10% of dimethomorph EW, was also diluted at a concentration of 0.50 mg/mL (2000 fold liquid of active ingredients); the control agent, 80% of mancozeb WP, was diluted at a concentration into a 500 fold liquid according to the usage amount of the formulation; the control agents, 12.5% of myclobutanil EC, 25% of propiconazole EC, 430 g/L of tebuconazole SC, 10% of hexaconazole EC and 37% of difenoconazole EC were all diluted at a concentration into 1500 fold liquids according to the usage amount of the formulation; additionally clear water was used as the control. The first application was started on June 15th, and E. cichoracearum was inoculated on June 17th (the sick leaves were harvested from the solar greenhouse near the military airfield at Xiaguanying town, Yuzhong County, moisturized in the greenhouse for 2 days, then shreded, and filtered over a gauze, the filtrate was sprayed onto both sides of the cucumber leaves with the cone nozzle of an electric sprayer for inoculation). […]

[3] = tested on: Blumeria graminis f.sp.tritici; experiment: In-vivo greenhouse control of wheat powdery mildew; settings: winter wheat, 0.20 mg/mL (active ingredients), application from early onset
Protocol: (§2) 3.88 g of 3-(3',4'-methylenedioxy phenyl)-N-n-propyl acrylamide was weighed and dissolved in 25 g of absolute ethyl alcohol, then 6 g of emulsifier 0203B was added, and mixed uniformly with stirring to get 10% of 3-(3',4'-methylenedioxy phenyl)-N-n-propyl acrylamide EC.
(§3) 5.61 g of 3-(3',4'-methylenedioxy phenyl)-piperidine acrylate was weighed and dissolved in 25 g of absolute ethyl alcohol, then 6 g of emulsifier 0203B was added, and mixed uniformly with stirring to get 14% of 3-(3',4'-methylenedioxy phenyl)-piperidine acrylate EC.
Winter wheat (Variety: Huixian Red) was sown in pots in a greenhouse, and inoculated with a fresh spore suspension of Blumeria graminis f.sp.tritici by spraying on its leaves and stems at the stage of 2 leaves. The first application was started at the early onset of powdery mildew. Both sides of the leaves were sprayed evenly with a small hand-held sprayer so that the leaves were wetted by the liquor without loss. 10% of 3-(3',4'-methylenedioxy phenyl)-N-n-propyl acrylamide EC and 14% of 3-(3',4'-methylenedioxy phenyl)-piperidine acrylate EC were both diluted at two concentrations of 0.20 and 0.143 mg/mL (active ingredients), and the control agent, 15% of triazolone WP, was also diluted at two concentrations of 0.20 and 0.143 mg/mL (active ingredients), additionally clear water was used as the control. […]

Oidium lini = experiment: Field efficiency test, flax powdery mildew; assay type: in vivo; settings: 0.50 mg/mL (active ingredients)
Protocol: as §1
The variety of flax is Zhangya No. 2. 10% of 3-(3',4'-methylenedioxy phenyl)-N-n-propyl acrylamide EC and 14% of 3-(3',4'-methylenedioxy phenyl)-piperidine acrylate EC were both diluted at a concentration of 0.50 mg/mL (active ingredients); the control agent, 430 g/L of tebuconazole SC, was also diluted at a concentration of 0.50 mg/mL (active ingredients); additionally clear water was used as the control. The first application was started at the first appearance of spots for flax powdery mildew (Oidium lini) (natural incidence), and the second application was carried out 10 days later. The instrument for application was a WS-18D knapsack electric sprayer, which employed a cone nozzle. Each agent was formulated into the desired concentrations according to the usage amount of the control clear water. Both sides of the leaves were sprayed evenly. 10 days after the second application, the number of sick leaves at each grade of powdery mildew was investigated for the whole plant following the grading standard of 9 grades, to calculate the disease index and the control effect.

F. graminearum = experiment: microbe, parasite or virus in culture; assay type: cell-based; settings: for Average Diameter of the Colony: F. graminearum, 1 mg/mL; for inhibition at 1000 µg/mL: Fusarium graminearum, read-out: Inhibition Rate
Fusarium graminearum = experiment: microbe, parasite or virus in culture; assay type: cell-based; settings: for Average Diameter of the Colony: 1 mg/mL; for inhibition at 1000 µg/mL: read-out: Inhibition Rate
E. polygoni = experiment: In-vivo greenhouse control of marrow bean powdery mildew
Protocol: as §2, §3
Marrow bean (Variety: Thailand Jiadouwang) was cultured in pots in a greenhouse, and inoculated with E. polygoni at the stage of 4 leaves. The first application was started at the early onset (onset at the first true leaf: first appearance of spots), comprising 10% of 3-(3',4'-methylenedioxy phenyl)-N-n-propyl acrylamide EC and 14% of 3-(3',4'-methylenedioxy phenyl)-piperidine acrylate EC, which were both diluted at three concentrations of 0.20, 0.143, 0.10 mg/mL (active ingredients), the control agent, 12.5% of myclobutanil EC (North China pharmaceutical Group, Ainuo Co. Ltd.), was also diluted at three concentrations of 0.20, 0.143, 0.10 mg/mL (active ingredients), additionally clear water was used as the control. Both sides of the leaves were sprayed evenly with a small hand-held sprayer so that the leaves were wetted by the liquor without loss. Applications were conducted every 7 days consecutively for 4 times. 10 days after the fourth application, the number of sick leaves at each grade of powdery mildew was investigated for the whole plant following the grading standard of 9 grades, to calculate the disease index and the control effect.

[4] = 0.10 mg/mL (active ingredients)
[5] = 0.143 mg/mL (active ingredients)
[6] = 0.20 mg/mL (active ingredients)

CCCNC(=O)/C=C/c1ccc2c(c1)OCO2 [3-(3',4'-methylenedioxyphenyl)-N-n-propyl acrylamide]
Average Diameter of the Colony (Pyricularia grisea): 5.30 cm | inhibition at 1000 µg/mL (Pyricularia grisea): 41.1% | Average Diameter of the Colony (Phytophthora infestans [1]): 2.05 cm | Average Diameter of the Colony (Phytophthora infestans [2]): 0.00 cm | Control Effect (E. cichoracearum): 88.38% | Control Effect [3]: 86.97% | Control Effect (Oidium lini): 83.70% | Average Diameter of the Colony (F. graminearum): 3.49 cm | inhibition at 1000 µg/mL (F. graminearum): 59.4% | Average Diameter of the Colony (Fusarium graminearum): 2.27 cm | inhibition at 1000 µg/mL (Fusarium graminearum): 57.6% | Control Effect (E. polygoni; [4]): 84.19% | Control Effect (E. polygoni; [5]): 92.58% | Control Effect (E. polygoni; [6]): 93.53%

O=C(/C=C/c1ccc2c(c1)OCO2)N1CCCCC1 [3-(3',4'-methylenedioxyphenyl)-piperidine acrylate]
Average Diameter of the Colony (Pyricularia grisea): 1.60 cm | inhibition at 1000 µg/mL (Pyricularia grisea): 82.2% | Average Diameter of the Colony (Phytophthora infestans [1]): 0.81 cm | Average Diameter of the Colony (Phytophthora infestans [2]): 0.00 cm | Control Effect (E. cichoracearum): 69.84% | Control Effect [3]: 59.11% | Control Effect (Oidium lini): 41.82% | Average Diameter of the Colony (F. graminearum): 0.00 cm | inhibition at 1000 µg/mL (F. graminearum): 100% | Average Diameter of the Colony (Fusarium graminearum): 0.53 cm | inhibition at 1000 µg/mL (Fusarium graminearum): 90.1% | Control Effect (E. polygoni; [4]): 74.97% | Control Effect (E. polygoni; [5]): 89.40% | Control Effect (E. polygoni; [6]): 91.55%
